Measured values from patent US20240366598A1, “GLUCOSE-DEPENDENT INSULINOTROPIC POLYPEPTIDE RECEPTOR ANTAGONISTS AND USES THEREOF” (Pfizer Inc., priority 2023, published 2024).

The compounds below were run against T1, human Glucose-dependent Insulinotropic Polypeptide Receptor (hGIPR) (Homo sapiens, UniProt P48546) (assay: Functional in vitro GIPR antagonist potency assay (cAMP HTRF, CHO-K1 cells stably expressing hGIPR, hGIP stimulation at about EC80)). Conditions: geometric mean, hGIP at estimated EC80, examples marked ^2: overall geometric mean of multiple forms (including salts) tested.
T1 sequence (P48546 22-466): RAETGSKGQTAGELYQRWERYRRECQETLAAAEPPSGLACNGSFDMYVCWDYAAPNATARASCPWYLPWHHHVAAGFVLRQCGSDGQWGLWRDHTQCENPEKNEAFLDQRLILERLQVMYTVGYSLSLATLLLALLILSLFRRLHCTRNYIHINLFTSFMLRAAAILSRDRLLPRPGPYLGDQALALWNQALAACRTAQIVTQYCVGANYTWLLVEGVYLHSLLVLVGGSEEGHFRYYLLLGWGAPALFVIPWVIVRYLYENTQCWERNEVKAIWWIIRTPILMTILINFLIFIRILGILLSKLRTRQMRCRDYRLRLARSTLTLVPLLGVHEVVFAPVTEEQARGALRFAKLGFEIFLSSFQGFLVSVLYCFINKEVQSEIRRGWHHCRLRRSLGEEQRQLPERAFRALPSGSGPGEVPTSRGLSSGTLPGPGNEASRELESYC
Type: cell-based
Outline: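 CHO-K1 cells expressing hGIPR (2,000 per well) in HBSS/HEPES/0.1% BSA with 200 μM IBMX were preincubated 2 h at 37 °C with an 11-point compound series (0.5% DMSO). hGIP at about EC80 was then added for 30 min, and cAMP was read by HTRF (665/620 nm). Data were normalized between hGIP alone and full antagonism by a reference antagonist at 80 μM.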

| IC50 [nM] | Structure (SMILES) |
| --- | --- |
| 7.7 | COc1cc(-c2ccc(NC(=O)[C@H]3CCCN3C(=O)Nc3ccc(C(F)(F)F)c(C)c3)cc2)ccc1C(=O)O [Example 158, 3-methoxy-4′-[(1-{[3-methyl-4-(trifluoromethyl)phenyl]carbamoyl}-D-prolyl)amino][1,1′-biphenyl]-4-carboxylic acid] |
| 110 | CC(C)c1ccc(NC(=O)N2C[C@@H]3C[C@@H]3[C@@H]2C(=O)Nc2ccc(-c3cccc(C(=O)O)c3)cc2)cc1 [Example 159, 4′-{[(1S,2R,5R)-3-{[4-(propan-2-yl)phenyl]carbamoyl}-3-azabicyclo[3.1.0]hexane-2-carbonyl]amino}[1,1′-biphenyl]-3-carboxylic acid] |
| 75 | Cc1cc(NC(=O)[C@H]2CCCN2C(=O)Nc2ccc(C3CCC3)cc2)cnc1-c1ccc(C(=O)O)cc1 [Example 160, 4-[5-({1-[(4-cyclobutylphenyl)carbamoyl]-D-prolyl}amino)-3-methylpyridin-2-yl]benzoic acid] |
| 77 | O=C(O)c1ccc2cc(NC(=O)[C@H]3CCCN3C(=O)Nc3ccc(C(F)(F)F)cc3)ccc2c1 [Example 161, 6-[(1-{[4-(trifluoromethyl)phenyl]carbamoyl}-D-prolyl)amino]naphthalene-2-carboxylic acid] |
| 44 | Cc1cc(NC(=O)N2CCC[C@@H]2C(=O)Nc2ccc3cc(C(=O)O)ccc3c2)ccc1C(C)C [Example 162, 6-[(1-{[3-methyl-4-(propan-2-yl)phenyl]carbamoyl}-D-prolyl)amino]naphthalene-2-carboxylic acid] |
| 19 | Cc1cc(NC(=O)N2CCC[C@@H]2C(=O)Nc2ccc(-c3ccc(C(=O)O)cc3)nc2)ccc1C(F)(F)F [Example 163, 4-{5-[(1-{[3-methyl-4-(trifluoromethyl)phenyl]carbamoyl}-D-prolyl)amino]pyridin-2-yl}benzoic acid] |
| 22 | C[C@H](NC(=O)N1CCC[C@@H]1C(=O)Nc1ccc(-c2ccc(C(=O)O)cc2)cc1)c1ccc(C(F)(F)F)cc1 [Example 164, 4′-{[1-({(1S)-1-[4-(trifluoromethyl)phenyl]ethyl}carbamoyl)-D-prolyl]amino}[1,1′-biphenyl]-4-carboxylic acid] |
| 7.2 | Cc1cc(NC(=O)N2CCC[C@@H]2C(=O)Nc2ccc(-c3ccc(C(=O)O)nc3C)cc2)ccc1C(F)(F)F [Example 167, 6-methyl-5-{4-[(1-{[3-methyl-4-(trifluoromethyl)phenyl]carbamoyl}-D-prolyl)amino]phenyl}pyridine-2-carboxylic acid] |
| 15 | Cc1cc(NC(=O)N2CCC[C@@H]2C(=O)Nc2ccc(-c3ccc(C(=O)O)nc3C)cc2)ccc1C(C)C [Example 168, 6-methyl-5-{4-[(1-{[3-methyl-4-(propan-2-yl)phenyl]carbamoyl}-D-prolyl)amino]phenyl}pyridine-2-carboxylic acid] |
| 49 | Cc1nc(C(=O)O)ccc1-c1ccc(NC(=O)[C@H]2CCCN2C(=O)Nc2ccc(C(F)(F)F)cc2)cc1 [Example 169, 6-methyl-5-{4-[(1-{[4-(trifluoromethyl)phenyl]carbamoyl}-D-prolyl)amino]phenyl}pyridine-2-carboxylic acid] |
| 40 | COc1cc(-c2ccc(NC(=O)[C@H]3CCCN3C(=O)Nc3ccc(C(F)(F)F)cc3)cc2)ccc1C(=O)O [Example 170, 3-methoxy-4′-[(1-{[4-(trifluoromethyl)phenyl]carbamoyl}-D-prolyl)amino][1,1′-biphenyl]-4-carboxylic acid] |
| 16 | Cc1cc(C(=O)O)ccc1-c1ccc(NC(=O)[C@H]2CCCN2C(=O)Nc2ccc(C(C)C)cc2)nc1 [Example 171, 3-methyl-4-{6-[(1-{[4-(propan-2-yl)phenyl]carbamoyl}-D-prolyl)amino]pyridin-3-yl}benzoic acid] |
| 31 | Cc1cc(C(=O)O)ccc1-c1ccc(NC(=O)[C@H]2CCCN2C(=O)Nc2ccc(C(F)(F)F)cc2)nc1 [Example 172, 3-methyl-4-{6-[(1-{[4-(trifluoromethyl)phenyl]carbamoyl}-D-prolyl)amino]pyridin-3-yl}benzoic acid] |
| 4.4 | Cc1cc(C(=O)O)ccc1-c1ccc(NC(=O)[C@H]2CCCN2C(=O)Nc2ccc(C(C)C)c(C)c2)nc1 [Example 173, 3-methyl-4-{6-[(1-{[3-methyl-4-(propan-2-yl)phenyl]carbamoyl}-D-prolyl)amino]pyridin-3-yl}benzoic acid] |
| 49 | Cc1cc(NC(=O)N2CCC[C@@H]2C(=O)Nc2ccc(-c3ccc(C(=O)O)nc3)cc2)ccc1C1CC1 [Example 174, 5-[4-({1-[(4-cyclopropyl-3-methylphenyl)carbamoyl]-D-prolyl}amino)phenyl]pyridine-2-carboxylic acid] |
| 8.3 | Cc1cc(NC(=O)N2CCC[C@@H]2C(=O)Nc2ccc(-c3cccc(C(=O)O)c3)cn2)ccc1C(F)(F)F [Example 175, 3-{6-[(1-{[3-methyl-4-(trifluoromethyl)phenyl]carbamoyl}-D-prolyl)amino]pyridin-3-yl}benzoic acid] |
| 11 | Cc1cc(C(=O)O)ccc1-c1ccc(NC(=O)[C@H]2CCCN2C(=O)Nc2ccc(C(C)C)c(F)c2)nc1 [Example 176, 4-{6-[(1-{[3-fluoro-4-(propan-2-yl)phenyl]carbamoyl}-D-prolyl)amino]pyridin-3-yl}-3-methylbenzoic acid] |
| 8.2 | Cc1cc(NC(=O)N2CCC[C@@H]2C(=O)Nc2ccc(-c3ccc(C(=O)O)cc3)cn2)ccc1C(F)(F)F [Example 177, 4-{6-[(1-{[3-methyl-4-(trifluoromethyl)phenyl]carbamoyl}-D-prolyl)amino]pyridin-3-yl}benzoic acid] |
| 11 | O=C(O)c1ccc(-c2ccc(NC(=O)[C@H]3CCCN3C(=O)Nc3ccc(C4(C(F)(F)F)CC4)cc3)nc2)cc1 [Example 178, 4-(6-{[1-({4-[1-(trifluoromethyl)cyclopropyl]phenyl}carbamoyl)-D-prolyl]amino}pyridin-3-yl)benzoic acid] |
| 3.7 | Cc1cc(NC(=O)N2CCC[C@@H]2C(=O)Nc2ccc(-c3ccc(C(=O)O)cc3)cn2)ccc1C1CC1 [Example 179, 4-[6-({1-[(4-cyclopropyl-3-methylphenyl)carbamoyl]-D-prolyl}amino)pyridin-3-yl]benzoic acid] |
| 53 | Cc1cc(NC(=O)N2CCC[C@@H]2C(=O)Nc2ccc(-c3ccc(C(=O)O)cn3)cc2)ccc1C(C)C [Example 180, 6-{4-[(1-{[3-methyl-4-(propan-2-yl)phenyl]carbamoyl}-D-prolyl)amino]phenyl}pyridine-3-carboxylic acid] |
| 24 | O=C(O)c1cccc(-c2ccc(NC(=O)[C@H]3CCCN3C(=O)Nc3ccc(C(F)(F)F)cc3)nc2)c1 [Example 181, 3-{6-[(1-{[4-(trifluoromethyl)phenyl]carbamoyl}-D-prolyl)amino]pyridin-3-yl}benzoic acid] |
| 23 | CC(C)c1ccc(NC(=O)N2CCC[C@@H]2C(=O)Nc2ccc(-c3ccc(C(=O)O)cn3)cc2)cc1F [Example 182, 6-{4-[(1-{[3-fluoro-4-(propan-2-yl)phenyl]carbamoyl}-D-prolyl)amino]phenyl}pyridine-3-carboxylic acid] |
| 9.3 | Cc1cc(NC(=O)N2CCC[C@@H]2C(=O)Nc2ccc(-c3cccc(C(=O)O)c3)cn2)ccc1C(C)C [Example 183, 3-{6-[(1-{[3-methyl-4-(propan-2-yl)phenyl]carbamoyl}-D-prolyl)amino]pyridin-3-yl}benzoic acid] |
